# From the supplement of paper PMC8612539
# Assays:
# Mannheimia haemolytica = assay: minimum inhibitory concentration (MIC)
# Protocol: (§1)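 Broth microdilution MIC (Sensititre BOPO7F bovine plate, CLSI methods) of 19 antimicrobials against field isolates of P. multocida, M. haemolytica, H. somni (deep nasopharyngeal swabs) and E. coli, Enterococcus spp. (rectal swabs) from weaned dairy heifers. Incubation 16-24 h at 35 C. MIC is the lowest concentration preventing visible growth. Values with <= or > lie at the tested range limits. Trimethoprim-sulfamethoxazole is given as the trimethoprim component of a 1:19 mixture.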
# Enterococcus spp. = assay: minimum inhibitory concentration (MIC)
# Protocol: as §1
# [1] = isolate (source animal id): 122
# [2] = isolate (source animal id): 123
# [3] = isolate (source animal id): 133
# [4] = isolate (source animal id): 171
# [5] = isolate (source animal id): 183
# [6] = isolate (source animal id): 187
# [7] = isolate (source animal id): 190
# [8] = isolate (source animal id): 211
# [9] = isolate (source animal id): 223
# [10] = isolate (source animal id): 241
# [11] = isolate (source animal id): 252
# [12] = isolate (source animal id): 282
# [13] = isolate (source animal id): 298
# [14] = isolate (source animal id): 320
# [15] = isolate (source animal id): 333
smiles,measurement,setting,value
CC[C@H]1OC(=O)C[C@@H](O)[C@H](C)[C@@H](O[C@@H]2O[C@H](C)[C@@H](O[C@H]3C[C@@](C)(O)[C@@H](O)[C@H](C)O3)[C@H](N(C)C)[C@H]2O)[C@@H](CC=O)C[C@@H](C)C(=O)/C=C/C(C)=C/[C@@H]1CO[C@@H]1O[C@H](C)[C@@H](O)[C@@H](OC)[C@H]1OC [Tylosin],minimum inhibitory concentration,Mannheimia haemolytica; isolate (source animal id): 8,> 32 µg/mL
same,minimum inhibitory concentration,Mannheimia haemolytica; isolate (source animal id): 13,> 32 µg/mL
same,minimum inhibitory concentration,Mannheimia haemolytica; isolate (source animal id): 18,> 32 µg/mL
same,minimum inhibitory concentration,Mannheimia haemolytica; isolate (source animal id): 21,> 32 µg/mL
same,minimum inhibitory concentration,Mannheimia haemolytica; isolate (source animal id): 25,> 32 µg/mL
same,minimum inhibitory concentration,Mannheimia haemolytica; isolate (source animal id): 27,> 32 µg/mL
same,minimum inhibitory concentration,Mannheimia haemolytica; isolate (source animal id): 28,> 32 µg/mL
same,minimum inhibitory concentration,Mannheimia haemolytica; isolate (source animal id): 30,> 32 µg/mL
same,minimum inhibitory concentration,Mannheimia haemolytica; isolate (source animal id): 31,> 32 µg/mL
same,minimum inhibitory concentration,Mannheimia haemolytica; isolate (source animal id): 32,> 32 µg/mL
same,minimum inhibitory concentration,Mannheimia haemolytica; isolate (source animal id): 34,> 32 µg/mL
same,minimum inhibitory concentration,Mannheimia haemolytica; isolate (source animal id): 36,> 32 µg/mL
same,minimum inhibitory concentration,Mannheimia haemolytica; isolate (source animal id): 37,> 32 µg/mL
same,minimum inhibitory concentration,Mannheimia haemolytica; isolate (source animal id): 40,32 µg/mL
same,minimum inhibitory concentration,Mannheimia haemolytica; isolate (source animal id): 41,> 32 µg/mL
same,minimum inhibitory concentration,Mannheimia haemolytica; isolate (source animal id): 43,> 32 µg/mL
same,minimum inhibitory concentration,Mannheimia haemolytica; isolate (source animal id): 46,> 32 µg/mL
same,minimum inhibitory concentration,Mannheimia haemolytica; isolate (source animal id): 49,> 32 µg/mL
same,minimum inhibitory concentration,Mannheimia haemolytica; isolate (source animal id): 50,> 32 µg/mL
same,minimum inhibitory concentration,Mannheimia haemolytica; isolate (source animal id): 51,> 32 µg/mL
same,minimum inhibitory concentration,Mannheimia haemolytica; isolate (source animal id): 52,> 32 µg/mL
same,minimum inhibitory concentration,Mannheimia haemolytica; isolate (source animal id): 53,> 32 µg/mL
same,minimum inhibitory concentration,Mannheimia haemolytica; isolate (source animal id): 55,32 µg/mL
same,minimum inhibitory concentration,Mannheimia haemolytica; isolate (source animal id): 56,> 32 µg/mL
same,minimum inhibitory concentration,Mannheimia haemolytica; isolate (source animal id): 57,> 32 µg/mL
same,minimum inhibitory concentration,Mannheimia haemolytica; isolate (source animal id): 100,> 32 µg/mL
same,minimum inhibitory concentration,Mannheimia haemolytica; isolate (source animal id): 103,> 32 µg/mL
same,minimum inhibitory concentration,Mannheimia haemolytica; isolate (source animal id): 107,> 32 µg/mL
same,minimum inhibitory concentration,Mannheimia haemolytica; isolate (source animal id): 108,> 32 µg/mL
same,minimum inhibitory concentration,Mannheimia haemolytica; isolate (source animal id): 112,> 32 µg/mL
same,minimum inhibitory concentration,Mannheimia haemolytica; isolate (source animal id): 113,> 32 µg/mL
same,minimum inhibitory concentration,Mannheimia haemolytica; isolate (source animal id): 121,> 32 µg/mL
same,minimum inhibitory concentration,Mannheimia haemolytica; [1],> 32 µg/mL
same,minimum inhibitory concentration,Mannheimia haemolytica; [2],> 32 µg/mL
same,minimum inhibitory concentration,Mannheimia haemolytica; isolate (source animal id): 126,> 32 µg/mL
same,minimum inhibitory concentration,Mannheimia haemolytica; [3],> 32 µg/mL
same,minimum inhibitory concentration,Mannheimia haemolytica; isolate (source animal id): 135,> 32 µg/mL
same,minimum inhibitory concentration,Mannheimia haemolytica; isolate (source animal id): 138,> 32 µg/mL
same,minimum inhibitory concentration,Mannheimia haemolytica; isolate (source animal id): 141,> 32 µg/mL
same,minimum inhibitory concentration,Mannheimia haemolytica; isolate (source animal id): 142,> 32 µg/mL
same,minimum inhibitory concentration,Mannheimia haemolytica; isolate (source animal id): 145,> 32 µg/mL
same,minimum inhibitory concentration,Mannheimia haemolytica; isolate (source animal id): 149,> 32 µg/mL
same,minimum inhibitory concentration,Mannheimia haemolytica; isolate (source animal id): 151,> 32 µg/mL
same,minimum inhibitory concentration,Mannheimia haemolytica; isolate (source animal id): 152,> 32 µg/mL
same,minimum inhibitory concentration,Mannheimia haemolytica; isolate (source animal id): 154,> 32 µg/mL
same,minimum inhibitory concentration,Mannheimia haemolytica; isolate (source animal id): 159,> 32 µg/mL
same,minimum inhibitory concentration,Mannheimia haemolytica; isolate (source animal id): 162,> 32 µg/mL
same,minimum inhibitory concentration,Mannheimia haemolytica; isolate (source animal id): 170,> 32 µg/mL
same,minimum inhibitory concentration,Mannheimia haemolytica; [4],> 32 µg/mL
same,minimum inhibitory concentration,Mannheimia haemolytica; isolate (source animal id): 172,> 32 µg/mL
same,minimum inhibitory concentration,Mannheimia haemolytica; isolate (source animal id): 173,> 32 µg/mL
same,minimum inhibitory concentration,Mannheimia haemolytica; isolate (source animal id): 179,32 µg/mL
same,minimum inhibitory concentration,Mannheimia haemolytica; isolate (source animal id): 180,> 32 µg/mL
same,minimum inhibitory concentration,Mannheimia haemolytica; [5],> 32 µg/mL
same,minimum inhibitory concentration,Mannheimia haemolytica; isolate (source animal id): 186,> 32 µg/mL
same,minimum inhibitory concentration,Mannheimia haemolytica; [6],> 32 µg/mL
same,minimum inhibitory concentration,Mannheimia haemolytica; isolate (source animal id): 188,> 32 µg/mL
same,minimum inhibitory concentration,Mannheimia haemolytica; [7],> 32 µg/mL
same,minimum inhibitory concentration,Mannheimia haemolytica; isolate (source animal id): 191,> 32 µg/mL
same,minimum inhibitory concentration,Mannheimia haemolytica; isolate (source animal id): 192,> 32 µg/mL
same,minimum inhibitory concentration,Mannheimia haemolytica; isolate (source animal id): 201,> 32 µg/mL
same,minimum inhibitory concentration,Mannheimia haemolytica; isolate (source animal id): 202,> 32 µg/mL
same,minimum inhibitory concentration,Mannheimia haemolytica; isolate (source animal id): 209,> 32 µg/mL
same,minimum inhibitory concentration,Mannheimia haemolytica; [8],> 32 µg/mL
same,minimum inhibitory concentration,Mannheimia haemolytica; isolate (source animal id): 220,> 32 µg/mL
same,minimum inhibitory concentration,Mannheimia haemolytica; isolate (source animal id): 221,> 32 µg/mL
same,minimum inhibitory concentration,Mannheimia haemolytica; [9],> 32 µg/mL
same,minimum inhibitory concentration,Mannheimia haemolytica; isolate (source animal id): 233,> 32 µg/mL
same,minimum inhibitory concentration,Mannheimia haemolytica; isolate (source animal id): 237,> 32 µg/mL
same,minimum inhibitory concentration,Mannheimia haemolytica; [10],> 32 µg/mL
same,minimum inhibitory concentration,Mannheimia haemolytica; [11],> 32 µg/mL
same,minimum inhibitory concentration,Mannheimia haemolytica; isolate (source animal id): 253,> 32 µg/mL
same,minimum inhibitory concentration,Mannheimia haemolytica; isolate (source animal id): 259,> 32 µg/mL
same,minimum inhibitory concentration,Mannheimia haemolytica; isolate (source animal id): 260,> 32 µg/mL
same,minimum inhibitory concentration,Mannheimia haemolytica; isolate (source animal id): 262,> 32 µg/mL
same,minimum inhibitory concentration,Mannheimia haemolytica; [12],> 32 µg/mL
same,minimum inhibitory concentration,Mannheimia haemolytica; isolate (source animal id): 287,> 32 µg/mL
same,minimum inhibitory concentration,Mannheimia haemolytica; isolate (source animal id): 288,> 32 µg/mL
same,minimum inhibitory concentration,Mannheimia haemolytica; isolate (source animal id): 291,> 32 µg/mL
same,minimum inhibitory concentration,Mannheimia haemolytica; isolate (source animal id): 293,> 32 µg/mL
same,minimum inhibitory concentration,Mannheimia haemolytica; [13],> 32 µg/mL
same,minimum inhibitory concentration,Mannheimia haemolytica; isolate (source animal id): 299,> 32 µg/mL
same,minimum inhibitory concentration,Mannheimia haemolytica; isolate (source animal id): 300,32 µg/mL
same,minimum inhibitory concentration,Mannheimia haemolytica; isolate (source animal id): 302,> 32 µg/mL
same,minimum inhibitory concentration,Mannheimia haemolytica; isolate (source animal id): 304,> 32 µg/mL
same,minimum inhibitory concentration,Mannheimia haemolytica; isolate (source animal id): 306,> 32 µg/mL
same,minimum inhibitory concentration,Mannheimia haemolytica; isolate (source animal id): 308,> 32 µg/mL
same,minimum inhibitory concentration,Mannheimia haemolytica; isolate (source animal id): 309,> 32 µg/mL
same,minimum inhibitory concentration,Mannheimia haemolytica; isolate (source animal id): 313,> 32 µg/mL
same,minimum inhibitory concentration,Mannheimia haemolytica; isolate (source animal id): 318,> 32 µg/mL
same,minimum inhibitory concentration,Mannheimia haemolytica; [14],> 32 µg/mL
same,minimum inhibitory concentration,Mannheimia haemolytica; isolate (source animal id): 321,> 32 µg/mL
same,minimum inhibitory concentration,Mannheimia haemolytica; isolate (source animal id): 323,> 32 µg/mL
same,minimum inhibitory concentration,Mannheimia haemolytica; isolate (source animal id): 324,> 32 µg/mL
same,minimum inhibitory concentration,Mannheimia haemolytica; isolate (source animal id): 326,> 32 µg/mL
same,minimum inhibitory concentration,Mannheimia haemolytica; isolate (source animal id): 328,> 32 µg/mL
same,minimum inhibitory concentration,Mannheimia haemolytica; isolate (source animal id): 329,> 32 µg/mL
same,minimum inhibitory concentration,Mannheimia haemolytica; [15],> 32 µg/mL
same,minimum inhibitory concentration,Mannheimia haemolytica; isolate (source animal id): 335,> 32 µg/mL
same,minimum inhibitory concentration,Mannheimia haemolytica; isolate (source animal id): 338,> 32 µg/mL
same,minimum inhibitory concentration,Enterococcus spp.; isolate (source animal id): 2,2 µg/mL
same,minimum inhibitory concentration,Enterococcus spp.; isolate (source animal id): 35,> 32 µg/mL
same,minimum inhibitory concentration,Enterococcus spp.; isolate (source animal id): 42,2 µg/mL
same,minimum inhibitory concentration,Enterococcus spp.; isolate (source animal id): 44,2 µg/mL
same,minimum inhibitory concentration,Enterococcus spp.; isolate (source animal id): 79,2 µg/mL
same,minimum inhibitory concentration,Enterococcus spp.; isolate (source animal id): 88,2 µg/mL
same,minimum inhibitory concentration,Enterococcus spp.; isolate (source animal id): 91,2 µg/mL
same,minimum inhibitory concentration,Enterococcus spp.; isolate (source animal id): 92,2 µg/mL
same,minimum inhibitory concentration,Enterococcus spp.; isolate (source animal id): 111,2 µg/mL
same,minimum inhibitory concentration,Enterococcus spp.; [1],> 32 µg/mL
same,minimum inhibitory concentration,Enterococcus spp.; [2],2 µg/mL
same,minimum inhibitory concentration,Enterococcus spp.; [3],2 µg/mL
same,minimum inhibitory concentration,Enterococcus spp.; isolate (source animal id): 158,> 32 µg/mL
same,minimum inhibitory concentration,Enterococcus spp.; isolate (source animal id): 168,2 µg/mL
same,minimum inhibitory concentration,Enterococcus spp.; isolate (source animal id): 169,2 µg/mL
same,minimum inhibitory concentration,Enterococcus spp.; [4],2 µg/mL
same,minimum inhibitory concentration,Enterococcus spp.; isolate (source animal id): 175,> 32 µg/mL
same,minimum inhibitory concentration,Enterococcus spp.; isolate (source animal id): 177,4 µg/mL
same,minimum inhibitory concentration,Enterococcus spp.; isolate (source animal id): 181,2 µg/mL
same,minimum inhibitory concentration,Enterococcus spp.; isolate (source animal id): 182,2 µg/mL
same,minimum inhibitory concentration,Enterococcus spp.; [5],2 µg/mL
same,minimum inhibitory concentration,Enterococcus spp.; [6],2 µg/mL
same,minimum inhibitory concentration,Enterococcus spp.; [7],2 µg/mL
same,minimum inhibitory concentration,Enterococcus spp.; isolate (source animal id): 194,2 µg/mL
same,minimum inhibitory concentration,Enterococcus spp.; isolate (source animal id): 195,2 µg/mL
same,minimum inhibitory concentration,Enterococcus spp.; isolate (source animal id): 197,2 µg/mL
same,minimum inhibitory concentration,Enterococcus spp.; [8],2 µg/mL
same,minimum inhibitory concentration,Enterococcus spp.; isolate (source animal id): 214,2 µg/mL
same,minimum inhibitory concentration,Enterococcus spp.; isolate (source animal id): 222,4 µg/mL
same,minimum inhibitory concentration,Enterococcus spp.; [9],2 µg/mL
same,minimum inhibitory concentration,Enterococcus spp.; isolate (source animal id): 228,> 32 µg/mL
same,minimum inhibitory concentration,Enterococcus spp.; isolate (source animal id): 230,> 32 µg/mL
same,minimum inhibitory concentration,Enterococcus spp.; isolate (source animal id): 235,> 32 µg/mL
same,minimum inhibitory concentration,Enterococcus spp.; isolate (source animal id): 236,8 µg/mL
same,minimum inhibitory concentration,Enterococcus spp.; isolate (source animal id): 239,2 µg/mL
same,minimum inhibitory concentration,Enterococcus spp.; [10],> 32 µg/mL
same,minimum inhibitory concentration,Enterococcus spp.; isolate (source animal id): 244,2 µg/mL
same,minimum inhibitory concentration,Enterococcus spp.; isolate (source animal id): 246,2 µg/mL
same,minimum inhibitory concentration,Enterococcus spp.; isolate (source animal id): 247,> 32 µg/mL
same,minimum inhibitory concentration,Enterococcus spp.; isolate (source animal id): 250,2 µg/mL
same,minimum inhibitory concentration,Enterococcus spp.; [11],> 32 µg/mL
same,minimum inhibitory concentration,Enterococcus spp.; isolate (source animal id): 268,> 32 µg/mL
same,minimum inhibitory concentration,Enterococcus spp.; [12],2 µg/mL
same,minimum inhibitory concentration,Enterococcus spp.; isolate (source animal id): 285,> 32 µg/mL
same,minimum inhibitory concentration,Enterococcus spp.; isolate (source animal id): 289,2 µg/mL
same,minimum inhibitory concentration,Enterococcus spp.; isolate (source animal id): 290,4 µg/mL
same,minimum inhibitory concentration,Enterococcus spp.; isolate (source animal id): 296,2 µg/mL
same,minimum inhibitory concentration,Enterococcus spp.; [13],≤ 0.5 µg/mL
same,minimum inhibitory concentration,Enterococcus spp.; isolate (source animal id): 301,2 µg/mL
same,minimum inhibitory concentration,Enterococcus spp.; isolate (source animal id): 310,> 32 µg/mL
same,minimum inhibitory concentration,Enterococcus spp.; [14],2 µg/mL
same,minimum inhibitory concentration,Enterococcus spp.; isolate (source animal id): 331,4 µg/mL
same,minimum inhibitory concentration,Enterococcus spp.; [15],2 µg/mL
same,minimum inhibitory concentration,Enterococcus spp.; isolate (source animal id): 341,> 32 µg/mL
